Experimental data from ChEMBL document CHEMBL1156304, “Pyridinyl aminohydantoins as small molecule BACE1 inhibitors” (Bioorg Med Chem Lett, 2010).

Columns and labels:
Beta-secretase 2 = target: T1, Beta-secretase 2 (Homo sapiens, UniProt Q9Y5Z0); experiment: Inhibition of BACE2 by FRET assay
T1 sequence (Q9Y5Z0 whole entry): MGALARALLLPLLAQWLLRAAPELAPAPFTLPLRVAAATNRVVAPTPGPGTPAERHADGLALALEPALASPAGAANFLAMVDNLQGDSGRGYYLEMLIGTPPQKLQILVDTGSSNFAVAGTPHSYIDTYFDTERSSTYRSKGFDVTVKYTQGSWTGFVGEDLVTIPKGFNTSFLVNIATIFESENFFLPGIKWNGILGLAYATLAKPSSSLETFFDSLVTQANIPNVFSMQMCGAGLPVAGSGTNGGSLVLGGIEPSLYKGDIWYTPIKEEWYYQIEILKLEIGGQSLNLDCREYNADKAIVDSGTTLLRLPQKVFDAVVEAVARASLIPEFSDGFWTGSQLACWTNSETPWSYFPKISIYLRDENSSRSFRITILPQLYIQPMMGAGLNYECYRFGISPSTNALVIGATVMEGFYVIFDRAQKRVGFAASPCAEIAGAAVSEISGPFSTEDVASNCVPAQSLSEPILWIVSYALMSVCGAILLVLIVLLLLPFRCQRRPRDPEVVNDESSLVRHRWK

Cathepsin D = Cathepsin D (Homo sapiens, UniProt P07339); experiment: Inhibition of cathepsin D by FRET assay
Beta-secretase 1 = Beta-secretase 1 (Homo sapiens, UniProt P56817); experiment: Inhibition of BACE1 by FRET assay
[1] = Selectivity ratio of IC50 for BACE2 to IC50 for BACE1

Sequence of Cathepsin D (P07339 65-162 limits assumed): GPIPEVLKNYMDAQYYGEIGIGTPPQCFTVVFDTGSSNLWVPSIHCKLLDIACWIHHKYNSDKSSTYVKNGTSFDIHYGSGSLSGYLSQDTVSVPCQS
Sequence of Cathepsin D (P07339 169-412 limits assumed): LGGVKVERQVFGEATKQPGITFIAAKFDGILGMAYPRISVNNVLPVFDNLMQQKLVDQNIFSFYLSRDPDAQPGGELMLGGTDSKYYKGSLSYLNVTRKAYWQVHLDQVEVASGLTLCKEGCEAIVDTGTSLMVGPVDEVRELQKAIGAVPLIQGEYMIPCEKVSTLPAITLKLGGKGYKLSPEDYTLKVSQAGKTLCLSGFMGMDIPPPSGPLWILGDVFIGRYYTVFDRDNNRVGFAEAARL
Sequence of Beta-secretase 1 (P56817 whole entry): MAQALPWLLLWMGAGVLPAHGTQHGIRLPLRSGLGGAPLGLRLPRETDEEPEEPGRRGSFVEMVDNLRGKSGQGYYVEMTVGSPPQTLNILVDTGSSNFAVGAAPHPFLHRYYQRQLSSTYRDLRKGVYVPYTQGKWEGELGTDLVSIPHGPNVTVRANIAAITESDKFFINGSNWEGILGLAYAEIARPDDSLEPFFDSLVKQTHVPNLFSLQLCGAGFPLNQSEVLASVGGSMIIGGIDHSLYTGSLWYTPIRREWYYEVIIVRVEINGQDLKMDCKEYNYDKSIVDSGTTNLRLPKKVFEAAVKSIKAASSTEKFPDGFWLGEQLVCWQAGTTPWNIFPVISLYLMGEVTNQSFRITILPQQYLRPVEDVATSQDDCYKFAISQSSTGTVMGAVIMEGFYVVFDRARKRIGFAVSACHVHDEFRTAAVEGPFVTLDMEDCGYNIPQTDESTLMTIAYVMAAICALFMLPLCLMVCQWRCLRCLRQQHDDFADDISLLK

Compound	IC50 (Beta-secretase 2) [nM]	IC50 (Cathepsin D) [nM]	IC50 (Beta-secretase 1) [nM]	Ratio IC50 [1]
CN1C(=O)C(c2ccncc2)(c2cccc(-c3ccoc3)c2)N=C1N (configuration not stated)	570	46800		
CN1C(=O)C(c2ccncc2)(c2cccc(-c3cc(F)cc(F)c3)c2)N=C1N (configuration not stated)	60	34100	60	1
CN1C(=O)C(c2ccncc2)(c2cccc(-c3cc(F)ccc3F)c2)N=C1N (racemic)	120	9400		
CN1C(=O)C(c2ccncc2)(c2cccc(-c3cccc(C#N)c3)c2)N=C1N (configuration not stated)	40	24200	40	1
CN1C(=O)C(c2ccncc2)(c2cccc(-c3ccsc3)c2)N=C1N (configuration not stated)	190	31600		
CN1C(=O)C(c2ccncc2)(c2cccc(-c3cccnc3)c2)N=C1N (configuration not stated)				8
CN1C(=O)C(c2ccncc2)(c2cccc(-c3cccc(OC(F)(F)F)c3)c2)N=C1N (configuration not stated)	140	14100	250	0.6
CN1C(=O)[C@@](c2ccncc2)(c2cccc(-c3cc(F)ccc3F)c2)N=C1N	100	5500		
CN1C(=O)C(c2ccncc2)(c2cccc(-c3cccc(F)c3F)c2)N=C1N (configuration not stated)	130	13100	40	3.3
CN1C(=O)C(c2ccncc2)(c2cccc(-c3ccccc3)c2)N=C1N (configuration not stated)				1.1
CN1C(=O)[C@](c2ccncc2)(c2cccc(-c3cc(F)ccc3F)c2)N=C1N	700	26400		
CN1C(=O)C(c2ccncc2)(c2cccc(-c3cccnc3F)c2)N=C1N (configuration not stated)	1000	17400	30	33
CN1C(=O)C(c2ccncc2)(c2cccc(-c3cccc(F)c3)c2)N=C1N (configuration not stated)	80	20800	50	1.6
CN1C(=O)C(c2ccccc2)(c2ccncc2)N=C1N (configuration not stated)				0.8
COc1cccc(-c2cccc(C3(c4ccncc4)N=C(N)N(C)C3=O)c2)c1 (configuration not stated)	20	12200	30	0.7
CN1C(=O)C(c2ccncc2)(c2cccc(-c3cnccn3)c2)N=C1N (configuration not stated)	1010			
